Reference: patent publication US5948803A, “N-substituted dioxothiazolidylbenzamide derivatives and process for producing the same” (Kyorin Pharmaceutical Co., Ltd., priority 1995, dated 1999)

Experiments:
[1] = test system: inherited obese mice (C57BL ob/ob); assay: Blood sugar-lowering effect in glucose tolerance test, inherited obese mice (C57BL ob/ob); type: in vivo, mouse (C57BL ob/ob); conditions: 10 mg/kg oral, 5 days; glucose 2 g/kg orally after overnight fasting; blood sugar at 0, 30 and 60 minutes
Method: Employing inherited obese mice (C57BL ob/ob), prior to test, the blood sugar level was determined by collecting blood from caudal vein. The mice were grouped so as not to cause any difference in the blood sugar level, and the compounds of Example 16, 17 and 29 were administered orally for 5 days at a dosage of 10 mg/kg. For the glucose tolerance test, 2 g/kg of glucose were administered orally after fasting overnight and the blood sugar levels at 0 minute, 30 minutes and 60 minutes were determined. The blood sugar-lowering rate was calculated from following formula. [formula]

[2] = test system: inherited obese mice (C57BL ob/ob); assay: Triglyceride-lowering effect in blood, inherited obese mice (C57BL ob/ob); type: in vivo, mouse (C57BL ob/ob); conditions: 2 weeks
Method: Employing inherited obese mice (C57BL ob/ob), the compound of Example 16 was administered orally for 2 weeks at following dosages, and thereafter the triglyceride level in blood was determined. The triglyceride-lowering rate in blood was calculated from following formula. [formula]

aldose reductase = target: T1, aldose reductase (Rattus norvegicus, UniProt P07943); assay: In-vitro inhibitory effect against aldose reductase extracted from rat lens (method of Hayman and Kinoshita); type: biochemical
T1 construct: aldose reductase extracted from rat lens; from tissue; host or cells: rat lens
Text: Against aldose reductase extracted from rat lens, the in-vitro inhibitory effect of the compound of Example 16 was investigated by the method of Hayman and Kinoshita (Journal of Biological Chemistry, vol. 240, p. 877 (1965)).

| Compound | Blood sugar-depressing rate [1] | In-blood triglyceride depressing rate ([2]; 3 mg/kg oral) | In-blood triglyceride depressing rate ([2]; 10 mg/kg oral) | IC50 (aldose reductase) |
| --- | --- | --- | --- | --- |
| COc1ccc(C2SC(=O)NC2=O)cc1C(=O)NCc1cccc(C(F)(F)F)c1 (stereo not drawn) [Example 17] | 42% |  |  |  |
| O=C1NC(=O)C(c2ccc(F)c(C(=O)NCc3ccc(C(F)(F)F)cc3)c2)S1 (stereo not drawn) [Example 29] | 30% |  |  |  |
| COc1ccc(C2SC(=O)NC2=O)cc1C(=O)NCc1ccc(C(F)(F)F)cc1 (stereo not drawn) [Example 16, N-(4-trifluoromethylbenzyl)-5-(2,4-dioxothiazolidin-5-yl)-2-methoxybenzamid] | 48% | 51% | 70% | 23 nM |
